Measured values published in EP4740947A1, “PHARMACEUTICAL COMBINATION OF EGFR KINASE INHIBITOR AND C-MET KINASE INHIBITOR FOR TREATING TUMOR DISEASES” (Jiangsu AoSaiKang Pharmaceutical Co., Ltd., priority 2023, dated 2025).
Where “and” joins values, the source holds several entries; their conditions need not be identical. Equal values may be shown once.

How the values were obtained:
[1] = Body weight change and tolerance of tumor-bearing mice in the LD1-0025-200662 PDX model; format: in vivo; settings: for Rate of weight change (%) Day 21: Day 21 vs Day 0
Procedure: (§1) Immunodeficient mice were subcutaneously inoculated with LD1-0025-200662 tumor tissue, and observed continuously till tumor formation. When the tumor volume reached about 1000 mm^3, the tumor tissue was peeled off and cut into tumor tissue with a size of about 3 mm × 3 mm × 3 mm (about 50-90 mg), and inoculated subcutaneously in NU/NU mice. The inoculated mice were observed and the growth of tumor was monitored. When the average tumor volume of tumor-bearing mice reached 193.40 mm^3, the mice were randomly divided into groups, administered and observed. The tumor volume and weight of all tumor-bearing mice were measured before grouping, and the tumor-bearing mice were randomly grouped according to the measured tumor volume. According to the principle of random block design, the mice were first divided into blocks according to the tumor volume, and then the mice in each block were randomly assigned to each treatment group. Table 9. Administration and treatment
During the whole experiment, the use and observation of test animals were carried out in accordance with the relevant regulations of Guide for the Care and Use of Laboratory Animals of AAALAC. After the test animals were inoculated with the tumor tissue, they were observed every day and the disease attack and death were recorded. During the routine experiment, all the test animals were monitored and recorded for behavior, food intake, water intake, weight change, hair luster and other abnormal conditions.
5.6 The weight of tumor-bearing mice was measured twice a week, and the change rate of weight gain of mice after administration was calculated: RCBW(%) = (BWi - BW0) / BW0 × 100, where BWi was the average weight at a certain measurement after administration, and BW0 was the average weight at the first administration.

[2] = tested on: LD1-0025-200662 human lung cancer tissue; assay: Efficacy study in patient derived xenograft (PDX) tumor model established with LD1-0025-200662 human lung cancer tissue; format: in vivo, NU/NU mice; settings: for Complete tumor regression (%): rate of mice, observed by naked eyes on day 21; for T/C% Day 21: relative tumor proliferation rate; for T/C (%) (tumor weight): tumor weight vs vehicle
Procedure: NU/NU mice were subcutaneously inoculated with human lung cancer tissue LD1-0025-200662 to establish an in-vivo xenograft tumor model, and then the efficacy of the test drugs ASK-MET alone, ASK-EGFR alone, ASK-MET+ASK-EGFR in combination and RefT+ ASK-EGFR in combination in the model were evaluated.
LD1-0025-200662 (see Table 8), a patient derived human lung cancer tissue, was sub-cultured to FP3+3 passages for this efficacy test. Table 8. Xenograft tumor model
NU/NU mice, female, age: 42-62 days, weight: 18-22 g, purchased from Zhejiang Vital River Laboratory Animal Technology Co., Ltd. (Production license: SCXK(Zhe)2019-0001).
• Vehicle: 20% solutol/80% 100 mM sodium acetate buffer pH 5.5; • ASK-MET: hydrochloride of the compound of Formula (II), prepared with 20% solutol/80% 100 mM sodium acetate buffer pH 5.5, concentration: 0.1 mg/mL, 0.3 mg/mL; • ASK-EGFR: compound of Formula (I), prepared with 0.5% sodium carboxymethyl cellulose solution (0.5%CMC-Na), concentration: 2 mg/mL; • RefT: prepared with 20% solutol/80% 100 mM sodium acetate buffer pH 5.5, concentration: 0.3 mg/mL; RefT is a small-molecule MET kinase inhibitor approved by USFDA.
as §1
5.1 Measurement of tumor volume and weight of tumor-bearing mice: The measurement was made twice a week by using a vernier caliper, and the tumor volume was calculated by a formula V = 0.5 × a × b^2, where a and b were respectively the major and minor diameters of the tumor.
5.2 Tumor growth inhibition TGI (%)= [1-(Ti-T0) / (Vi-V0)] × 100, where Ti-T0>0; TGI (%) = [1-(Ti-T0)/ T0] × 100, where Ti-T0<0. T0 was the average tumor volume at the first administration in the treatment group, Ti was the average tumor volume at a certain measurement after administration in the treatment group, V0 was the average tumor volume at the first administration in the vehicle control group, and Vi was the average tumor volume at a certain measurement after administration in the vehicle control group.
5.3 Relative tumor proliferation rate T/C (%): The calculation formula is as follows: T/C % = TRTV / CRTV × 100 % (TRTV: RTV of the treatment group; CRTV: RTV of the negative control group). According to the results of tumor measurement, the relative tumor volume (RTV) was calculated by a formula RTV = Vt / V0, where V0 was the average tumor volume measured at the time of grouping for administration (that is, d0), Vt was the average tumor volume measured at a certain measurement, and TRTV and CRTV data of the same day was used.
5.4 Synergistic effect in combined treatment group: Jin's formula Q=E(a+b)/[Ea+Eb-Ea × Eb], where Ea was TGI of a drug alone, and Q value>1 reflected that drug combination has a synergistic effect.
5.5 After the experiment, the tumor was stripped, weighed and photographed. T/Cweight%= Tweight /Vweight × 100%, where Tweight was the average tumor weight of the compound group at the end of the experiment, and Vweight was the average tumor weight of the vehicle control group at the end of the experiment.
All data is expressed as Mean±SEM. […]

[3] = ASK-EGFR 20 mg/kg p.o. QD×21 (G2)
[4] = Day 21, ASK-EGFR 20 mg/kg p.o. QD×21 (G2)
[5] = ASK-MET 1 mg/kg p.o. QD×(D0-D7) (G3)
[6] = ASK-MET 3 mg/kg p.o. QD×(D0-D7) (G4)
[7] = Day 21, ASK-MET 1 mg/kg p.o. QD×(D0-D7) (G3)
[8] = Day 21, ASK-MET 3 mg/kg p.o. QD×(D0-D7) (G4)

C=CC(=O)Nc1cc(Nc2ncc(Cl)c(Nc3ccc4ccccc4c3)n2)c(OC)cc1N(C)CCN(C)C [ASK-EGFR, N-((5-((5-chloro-4-((naphthalen-2-yl)amino))pyrimidin-2-yl)amino)-2-((N-methyl-N-dimethylaminoethyl)amino)-4-methoxyphenyl) acrylamide]
Average weight (g) (Mean ± SEM) Day 0 [1, 3]: 23.24 ± 0.47 g
Average weight (g) (Mean ± SEM) Day 21 [1, 3]: 24.75 ± 0.64 g
Rate of weight change (%) Day 21 [1, 3]: 6.45±1.28%
Tumor volume (mm^3) (Mean ± SEM) Day 0 [2, 3]: 169.31±14.43 mm^3
Tumor volume (mm^3) (Mean ± SEM) Day 21 [2, 4]: 1239.58±146.6 mm^3
Tumor weight (g) (Mean ± SEM) Day 21 after treatment [2, 4]: 1.19 ± 0.16 g
TGI% Day 21 ([2]; Day 21 vs vehicle, ASK-EGFR 20 mg/kg p.o. QD×21 (G2)): 1.96%
Complete tumor regression (%) [2, 3]: 0.00% and 0 (0/8) %
T/C% Day 21 [2, 4]: 98.77%
T/C (%) (tumor weight) [2, 4]: 93.41%

CC(C)(O)CN1CCC(COc2cnc(-c3cccc(Cn4c(=O)ccn5c6cc(C#N)ccc6nc45)c3)nc2)CC1 [ASK-MET]
Average weight (g) (Mean ± SEM) Day 0 [1, 5]: 24.08 ± 0.53 g
Average weight (g) (Mean ± SEM) Day 0 [1, 6]: 24.02 ± 0.37 g
Average weight (g) (Mean ± SEM) Day 21 [1, 5]: 25.24 ± 0.50 g
Average weight (g) (Mean ± SEM) Day 21 [1, 6]: 25.03 ± 0.45 g
Rate of weight change (%) Day 21 [1, 5]: 4.88±0.71%
Rate of weight change (%) Day 21 [1, 6]: 4.19±1.08%
complete tumor regression of tumor-bearing mice (in words) ([2]; ASK-MET 1 mg/kg (G3)): varying degrees of complete tumor regression
inhibition on the growth of subcutaneous xenograft tumor ([2]; ASK-MET 1 mg/kg (G3)): statistically significant inhibition
complete tumor regression of tumor-bearing mice (in words) ([2]; ASK-MET 3 mg/kg (G4)): varying degrees of complete tumor regression
inhibition on the growth of subcutaneous xenograft tumor ([2]; ASK-MET 3 mg/kg (G4)): statistically significant inhibition
Tumor volume (mm^3) (Mean ± SEM) Day 0 [2, 5]: 168.78±15.38 mm^3
Tumor volume (mm^3) (Mean ± SEM) Day 0 [2, 6]: 170.65±12.40 mm^3
Tumor volume (mm^3) (Mean ± SEM) Day 21 [2, 7]: 116.01±35.11 mm^3
Tumor weight (g) (Mean ± SEM) Day 21 after treatment [2, 7]: 0.12 ± 0.04 g
TGI% Day 21 ([2]; Day 21, ASK-MET 1 mg/kg p.o. QD×(D0-D7) (G3), above 100 = regression by formula of b100): 131.27%
Tumor volume (mm^3) (Mean ± SEM) Day 21 [2, 8]: 3.54±2.35 mm^3
Tumor weight (g) (Mean ± SEM) Day 21 after treatment [2, 8]: 0.01 ± 0.00 g
TGI% Day 21 ([2]; Day 21, ASK-MET 3 mg/kg p.o. QD×(D0-D7) (G4), above 100 = regression by formula of b100): 197.93%
Complete tumor regression (%) [2, 5]: 12.5% and 12.5 (1/8) %
Complete tumor regression (%) [2, 6]: 75% and 75 (6/8) %
T/C% Day 21 [2, 7]: 9.27%
T/C% Day 21 [2, 8]: 0.28%
T/C (%) (tumor weight) [2, 7]: 9.18%
T/C (%) (tumor weight) [2, 8]: 0.39%
